Laboratory results taken from patent US11413290B2, “Amorphous solid dispersions of dasatinib and uses thereof” (NANOCOPOEIA, LLC, priority 2020, dated 2022).

Tests used:
[1] = dasatinib in crystalline forms; cited from earlier work
[2] = Amorphicity / crystallinity by XRD; assay type: physicochemical; conditions: Comparative Example; promptly after spray drying and secondary drying
Method: The percent of crystallinity was calculated as follows: % crystallinity=area of crystalline peaks/(area of crystalline peaks+amorphous peaks)
Amorphicity and glass transition temperature were assessed using the methodology described in Example 1.

[3] = Water content by coulometric Karl Fischer titration; assay type: physicochemical; conditions: Comparative Example; promptly after preparation
[4] = Assay and total impurities by HPLC (Example 6); assay type: physicochemical; conditions: Comparative Example; promptly after preparation
Method: Assay and total impurities of the ASDs were assessed using either an Agilent 1200 HPLC or a Waters Alliance e2695 HPLC.
L100-55 ASDs and in Table 37 for Dasatinib:METHOCEL E5 ASDs at t=0 and at each stability time point. These reported assay values are corrected for the measured water content of the sample.

[5] = Glass transition temperature by mDSC; conditions: Comparative Example; promptly after preparation

XRD character [2]	Water content [3] [%]	assay value [4] [%]	glass transition temperature (Tg), transition event [5] [°C]	SMILES	Biopharmaceutical Classification System (BCS) class [1]
–	–	–	–	Cc1nc(Nc2ncc(C(=O)Nc3c(C)cccc3Cl)s2)cc(N2CCN(CCO)CC2)n1 [dasatinib, N-(2-chloro-6-methylphenyl)-2-[[6-[4-(2-hydroxyethyl)-1-piperazinyl]-2-methyl-4-pyrimidinyl]amino]-5-thiazolecarboxamide]	Class II
exhibited crystalline character	0.81	97.4	125.61	Cc1nc(Nc2ncc(C(=O)Nc3c(C)cccc3Cl)s2)cc(N2CCN(CCO)CC2)n1 [spray-dried material of 100% dasatinib]	–
